This is an account of results in US10144737B2 (ETERNITY BIOSCIENCE INC., priority 2014, dated 2018).

For one assay, the system named is TMD-8 cells. The assay is described as follows: Cell proliferation assay (CellTiter-Glo), TMD-8 cells. In kind it is cell-based. As to conditions: Homo sapiens, TMD8, 120 h, 5-day treatment, read-out: TMD8 cell growth (GI50 μM). Here is the method: Cell proliferation assay: TMD-8 and SU-DHL-1 cells were maintained at 37° C. in a humidified atmosphere with 5% CO2 in the recommended medium and serum concentrations. For cell proliferation assay, cells were seeded in 96-well pates at a density of 5,000 to 10,000 cells per well and cultured overnight at 37° C. in recommended medium supplemented with 5-10% FBS. On the next day, the test articles at various concentrations or vehicle control (0.5% DMSO) were added into cell culture. After 5-day treatment, the growth of cells was assayed by the CellTiter-Glo® Luminestceaent Cell Viability Assay (Promega). IC50 values were calculated using GraphPad Prism by plotting the logarithm of the concentration versus percent inhibition of cell growth as compared with the vehicle control.
A general note: In ATP-based viability assays light output follows the ATP content of the culture.

The next assay deals with T1, Btk (Homo sapiens, UniProt Q06187).
T1 construct: purchased Promega (Madison, Wis.)
As to the kind of experiment: Btk kinase assay (ADP-Glo). The assay is classed as biochemical. As to conditions: ADP-Glo Btk kinase assay kit; ATP 1.2 μM; 60 minutes at room temperature. Here is the method:
Btk kinase assay—The Btk kinase assay was performed using a ADP-Glo Btk kinase assay kit purchased from Promega (Madison, Wis.). The assay was conducted according to the protocols provided in the assay kit. In brief, the enzyme reaction was carried out in the kinase reaction buffer containing Btk (2 ng/μl), ATP (1.2 μM), poly GT peptide (0.3 μM), DTT (40 nM), MnCl2 (1.4 mM), and 1 xkinase buffer (included in the kit) in the presence or absence of the tested articles at various concentrations in 384-well plate at room temperature (22±1° C.) for 60 minutes. The final reaction volume for each reaction was 10 μl. Then, 4 μl of ADP-Glo reagent (included in the kit) was added into the reaction and the plate was further incubated for another 40 minutes to terminate the reaction and deplete the remaining ATP. Finally, 10 μl of the kinase detection reagent was added into each reaction to simultaneously convert ADP to ATP and allow the newly synthesized ATP to be measured by a plate-reading luminometer (Victor X5 2030 multilabel reader, PerkinElmer). IC50 value was calculated using appropriate programs in GraphPad Prism by plotting the logarithm of the concentration versus percent inhibition as compared with a vehicle (DMSO) control.
For orientation: ADP-Glo turns the ADP formed in a reaction into a luminescent signal.

T1 sequence (Q06187 whole entry): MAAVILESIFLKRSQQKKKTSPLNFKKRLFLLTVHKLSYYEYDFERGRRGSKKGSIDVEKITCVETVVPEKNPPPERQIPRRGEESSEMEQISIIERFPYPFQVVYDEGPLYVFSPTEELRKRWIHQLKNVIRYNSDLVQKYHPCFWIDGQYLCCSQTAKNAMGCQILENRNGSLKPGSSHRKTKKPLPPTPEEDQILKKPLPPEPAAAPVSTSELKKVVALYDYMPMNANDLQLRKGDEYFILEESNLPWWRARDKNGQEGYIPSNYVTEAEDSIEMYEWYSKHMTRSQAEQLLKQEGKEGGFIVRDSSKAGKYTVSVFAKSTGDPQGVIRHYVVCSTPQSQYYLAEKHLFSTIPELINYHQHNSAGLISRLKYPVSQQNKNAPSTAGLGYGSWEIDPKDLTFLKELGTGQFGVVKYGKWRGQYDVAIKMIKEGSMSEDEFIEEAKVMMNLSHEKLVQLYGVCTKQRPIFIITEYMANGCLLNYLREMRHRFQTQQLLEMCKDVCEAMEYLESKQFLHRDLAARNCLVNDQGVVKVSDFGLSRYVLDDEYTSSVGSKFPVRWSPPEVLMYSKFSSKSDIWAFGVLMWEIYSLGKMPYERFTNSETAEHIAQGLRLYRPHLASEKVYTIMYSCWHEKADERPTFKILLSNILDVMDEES

With `C=CC(=O)N1CCC(Nc2ncnc3[nH]c(C#CCOc4cccc(OC)c4)nc23)C1` (stereo not drawn) [Example 26, 1-(3-((8-(3-(3-methoxyphenoxy)prop-1-yn-1-yl)-9H-purin-6-yl)amino)pyrrolidin-1-yl)prop-2-en-1-one], in the assay with TMD-8 cells, the 50% growth inhibitory concentration (GI50) (usually the concentration giving 50% growth inhibition) came out at 0.247 µM. Also, the half-inhibitory concentration (IC50) (in general, the point on the concentration scale where inhibition reaches its midpoint) on Btk came to 6.5 nM.

`C=CC(=O)N1CCC(Nc2ncnc3[nH]c(C#CCOc4ccc(OC)cc4)nc23)C1` (stereo not drawn) [Example 27, 1-(3-((8-(3-(4-methoxyphenoxy)prop-1-yn-1-yl)-9H-purin-6-yl)amino)pyrrolidin-1-yl)prop-2-en-1-one]: in the assay on TMD-8 cells, the 50% growth inhibitory concentration (GI50) was 0.094 µM. The compound further displayed a concentration for half-maximal inhibition (IC50) at Btk of 16 nM.

Take `COc1ccccc1OCC#Cc1nc2c(NC3CCN(C(=O)/C=C/CN(C)C)C3)ncnc2[nH]1` (stereo not drawn) [Example 28, (E)-1-(3-((8-(3-(2-methoxyphenoxy)prop-1-yn-1-yl)-9H-purin-6-yl)amino)pyrrolidin-1-yl)-4-(dimethylamino)but-2-en-1-one]: in the assay with TMD-8 cells, the GI50 amounted to 0.082 µM. The compound further had an IC50 on Btk of 0.4 nM.

Take `COc1cccc(OCC#Cc2nc3c(NC4CCN(C(=O)/C=C/CN(C)C)C4)ncnc3[nH]2)c1` (stereo not drawn) [Example 29, (E)-1-(3-((8-(3-(3-methoxyphenoxy)prop-1-yn-1-yl)-9H-purin-6-yl)amino)pyrrolidin-1-yl)-4-(dimethylamino)but-2-en-1-one]: the 50% growth inhibitory concentration (GI50) in the assay on TMD-8 cells came out at 1.21 µM. Moreover, 0.7 nM corresponded to half-maximal inhibition against Btk (IC50).

With `COc1ccc(OCC#Cc2nc3c(NC4CCN(C(=O)/C=C/CN(C)C)C4)ncnc3[nH]2)cc1` (stereo not drawn) [Example 30, (E)-1-(3-((8-(3-(4-methoxyphenoxy)prop-1-yn-1-yl)-9H-purin-6-yl)amino)pyrrolidin-1-yl)-4-(dimethylamino)but-2-en-1-one], in the assay with TMD-8 cells, the concentration for 50% growth inhibition (GI50) was 1.2 µM. Also, at Btk, the IC50 came to 19 nM.

`C=CC(=O)N1CC[C@@H](Nc2ncnc3[nH]c(C#CCOc4ccccc4)nc23)C1` [Example 31, (R)-1-(3-((8-(3-phenoxyprop-1-yn-1-yl)-9H-purin-6-yl)amino)pyrrolidin-1-yl)prop-2-en-1-one]: in the assay on TMD-8 cells, the GI50 is 0.02 µM. The compound further displayed an IC50 at Btk of 1.6 nM.

Regarding `CN(C)C/C=C/C(=O)N1CC[C@@H](Nc2ncnc3[nH]c(C#CCOc4ccccc4)nc23)C1` [Example 32, (R,E)-4-(dimethylamino)-1-(3-((8-(3-phenoxyprop-1-yn-1-yl)-9H-purin-6-yl)amino)pyrrolidin-1-yl)but-2-en-1-one], in the assay with TMD-8 cells, the GI50 is 0.004 µM. Also, at Btk, the midpoint of inhibition, the IC50, lay at 7.5 nM.

Regarding `CN(C)C/C=C/C(=O)N1CCC(Nc2ncnc3[nH]c(C#CCOc4ccccc4)cc23)C1` (stereo not drawn) [Example 34, (E)-4-(dimethylamino)-1-(3-((6-(3-phenoxyprop-1-yn-1-yl)-7H-pyrrolo[2,3-d]pyrimidin-4-yl)amino)pyrrolidin-1-yl)but-2-en-1-one], in the assay with TMD-8 cells, the GI50 was determined as 0.107 µM. This compound also had a half-maximal inhibitory concentration (IC50) against Btk of 0.3 nM.

Turning to `CNC/C=C/C(=O)N1CCC(Nc2ncnc3[nH]c(C#CCOc4ccccc4)cc23)C1` (stereo not drawn) [Example 35], the 50% growth inhibitory concentration (GI50) in the assay on TMD-8 cells was determined as 0.95 µM. The compound also registered an IC50 at Btk of 0.4 nM.

For `O=C(/C=C/CN1CCOCC1)N1CCC(Nc2ncnc3[nH]c(C#CCOc4ccccc4)cc23)C1` (stereo not drawn) [Example 36, (E)-4-morpholino-1-(3-((6-(3-phenoxyprop-1-yn-1-yl)-7H-pyrrolo[2,3-d]pyrimidin-4-yl)amino)pyrrolidin-1-yl)but-2-en-1-one], the 50% growth inhibitory concentration (GI50) in the assay on TMD-8 cells amounted to 0.552 µM. The compound also returned a half-inhibitory concentration (IC50) on Btk of 127 nM.

On to `C=CC(=O)N1CCC(N(C)c2ncnc3[nH]c(C#CCOc4ccccc4)cc23)C1` (stereo not drawn) [Example 38, 1-(3-(methyl(6-(3-phenoxyprop-1-yn-1-yl)-7H-pyrrolo[2,3-d]pyrimidin-4-yl)amino)pyrrolidin-1-yl)prop-2-en-1-one], for which, in the assay with TMD-8 cells, the GI50 was 0.209 µM. This compound also registered an IC50 on Btk of 384 nM.

Take `CN(C)C/C=C/C(=O)N1CCC(N(C)c2ncnc3[nH]c(C#CCOc4ccccc4)cc23)C1` (stereo not drawn) [Example 39, (E)-4-(dimethylamino)-1-(3-(methyl(6-(3-phenoxyprop-1-yn-1-yl)-7H-pyrrolo[2,3-d]pyrimidin-4-yl)amino)pyrrolidin-1-yl)but-2-en-1-one]: the GI50 in the assay with TMD-8 cells is 0.299 µM. This compound displayed an IC50 on Btk of 192 nM.

Take `C=CC(=O)N1CC[C@@H](Nc2ncnc3[nH]c(C#CCOc4ccccc4)cc23)C1` [Example 40, (R)-1-(3-((6-(3-phenoxyprop-1-yn-1-yl)-7H-pyrrolo[2,3-d]pyrimidin-4-yl)amino)pyrrolidin-1-yl)prop-2-en-1-one]: the concentration for 50% growth inhibition (GI50) with TMD-8 cells turned out to be 0.004 µM. Besides, inhibition at Btk was half-maximal at 0.3 nM (IC50).

Regarding `CN(C)C/C=C/C(=O)N1CC[C@@H](Nc2ncnc3[nH]c(C#CCOc4ccccc4)cc23)C1` [Example 41, (R,E)-4-(dimethylamino)-1-(3-((6-(3-phenoxyprop-1-yn-1-yl)-7H-pyrrolo[2,3-d]pyrimidin-4-yl)amino)pyrrolidin-1-yl)but-2-en-1-one], the GI50 in the assay with TMD-8 cells is 0.069 µM. This compound also showed a 50% inhibitory concentration (IC50) against Btk of 0.08 nM.

Turning to `C=CC(=O)N1CC[C@@H](Nc2ncnc3[nH]c(C#CCOc4ccccc4Cl)cc23)C1` [Example 43, (R)-1-(3-((6-(3-(2-chlorophenoxy)prop-1-yn-1-yl)-7H-pyrrolo[2,3-d]pyrimidin-4-yl)amino)pyrrolidin-1-yl)prop-2-en-1-one], the GI50 with TMD-8 cells turned out to be 0.001 µM. The IC50 against Btk is 0.14 nM.

On to `CN(C)C/C=C/C(=O)N1CC[C@@H](Nc2ncnc3[nH]c(C#CCOc4ccccc4Cl)cc23)C1` [Example 44, (R,E)-1-(3-((6-(3-(2-chlorophenoxy)prop-1-yn-1-yl)-7H-pyrrolo[2,3-d]pyrimidin-4-yl)amino)pyrrolidin-1-yl)-4-(dimethylamino)but-2-en-1-one], for which the GI50 in the assay on TMD-8 cells was 0.012 µM. In addition, the half-maximal inhibitory concentration (IC50) on Btk was found to be 0.11 nM.

Turning to `C=CC(=O)N1CC[C@@H](Nc2ncnc3[nH]c(C#CCOc4ccccc4OC)cc23)C1` [Example 45, (R)-1-(3-((6-(3-(2-methoxyphenoxy)prop-1-yn-1-yl)-7H-pyrrolo[2,3-d]pyrimidin-4-yl)amino)pyrrolidin-1-yl)prop-2-en-1-one], in the assay with TMD-8 cells, the GI50 was found to be 0.0014 µM. The compound further yielded an IC50 at Btk of 1.1 nM.

With `COc1ccccc1OCC#Cc1cc2c(N[C@@H]3CCN(C(=O)/C=C/CN(C)C)C3)ncnc2[nH]1` [Example 46, (R,E)-1-(3-((6-(3-(2-methoxyphenoxy)prop-1-yn-1-yl)-7H-pyrrolo[2,3-d]pyrimidin-4-yl)amino)pyrrolidin-1-yl)-4-(dimethylamino)but-2-en-1-one], in the assay with TMD-8 cells, the 50% growth inhibitory concentration (GI50) worked out at 0.017 µM. Besides, the concentration for half-maximal inhibition (IC50) against Btk is 0.04 nM.

With `CC#CC(=O)N1CC[C@@H](Nc2ncnc3[nH]c(C#CCOc4ccccc4F)cc23)C1` [Example 47, (R)-1-(3-((6-(3-(2-fluorophenoxy)prop-1-yn-1-yl)-7H-pyrrolo[2,3-d]pyrimidin-4-yl)amino)pyrrolidin-1-yl)but-2-yn-1-one], in the assay on TMD-8 cells, the 50% growth inhibitory concentration (GI50) was found to be 0.008 µM. The IC50 at Btk was 136 nM.

For `C/C=C/C(=O)N1CC[C@@H](Nc2ncnc3[nH]c(C#CCOc4ccccc4F)cc23)C1` [Example 48, (R,E)-1-(3-((6-(3-(2-fluorophenoxy)prop-1-yn-1-yl)-7H-pyrrolo[2,3-d]pyrimidin-4-yl)amino)pyrrolidin-1-yl)but-2-en-1-one], in the assay on TMD-8 cells, the GI50 worked out at 0.088 µM. The IC50 against Btk was found to be 432 nM.

On to `CN(C)C/C=C/C(=O)N1CC[C@@H](Nc2ncnc3[nH]c(C#CCOc4ccccc4F)cc23)C1` [Example 49, (R,E)-1-(3-((6-(3-(2-fluorophenoxy)prop-1-yn-1-yl)-7H-pyrrolo[2,3-d]pyrimidin-4-yl)amino)pyrrolidin-1-yl)-4-(dimethylamino)but-2-en-1-one], for which the GI50 in the assay on TMD-8 cells came out at 0.017 µM. Further, at Btk, the IC50 is less than 0.03 nM.

Turning to `C=CC(=O)N1CC[C@@H](Nc2ncnc3[nH]c(C#Cc4ccccc4)cc23)C1` [Example 50, (R)-1-(3-((6-(phenylethynyl)-7H-pyrrolo[2,3-d]pyrimidin-4-yl)amino)pyrrolidin-1-yl)prop-2-en-1-one], the GI50 in the assay with TMD-8 cells worked out at 0.009 µM. The compound also returned an IC50 against Btk of 11 nM.

Turning to `C=CC(=O)N1CC[C@@H](Nc2ncnc3[nH]c(C#Cc4ccccc4F)cc23)C1` [Example 51, (R)-1-(3-((6-((2-fluorophenyl)ethynyl)-7H-pyrrolo[2,3-d]pyrimidin-4-yl)amino)pyrrolidin-1-yl)prop-2-en-1-one], the 50% growth inhibitory concentration (GI50) in the assay on TMD-8 cells was 0.016 µM. The same compound showed an IC50 on Btk of 18 nM.

Regarding `CN(C)C/C=C/C(=O)N1CC[C@@H](Nc2ncnc3[nH]c(C#Cc4ccccc4F)cc23)C1` [Example 52, (R,E)-4-(dimethylamino)-1-(3-((6-((2-fluorophenyl)ethynyl)-7H-pyrrolo[2,3-d]pyrimidin-4-yl)amino)pyrrolidin-1-yl)but-2-en-1-one], the concentration for 50% growth inhibition (GI50) in the assay with TMD-8 cells came out at 0.187 µM. This compound also registered an IC50 at Btk of 6 nM.
